Source: patent US20250230193A1, “CYCLIC COMPOUND HAVING SELECTIVE KRAS INHIBITORY EFFECT ON HRAS AND NRAS” (CHUGAI SEIYAKU KABUSHIKI KAISHA, priority 2022, published 2025)
Where a SMILES comes first, the peptide text is derived from it. Bridges are numbered along the chain shown (N, C = ends). [ ]: non-standard residue; d: D form. The star is where a group is joined. hPhe(3,5-F2-4-CF3) = N[C@@H](CCc1cc(F)c(C(F)(F)F)c(F)c1)C(=O)O; hPhe(3-Cl-4-CF3) = N[C@@H](CCc1ccc(C(F)(F)F)c(Cl)c1)C(=O)O; NPrPhe(4-CF3) = CCCN[C@@H](Cc1ccc(C(F)(F)F)cc1)C(=O)O; NMeAbu(4,4,4-F3) = CN[C@@H](CC(F)(F)F)C(=O)O; NMeGly(cPent) = CN[C@H](C(=O)O)C1CCCC1; NMeD = CN[C@@H](CC(=O)O)C(=O)O; NMeL = CN[C@@H](CC(C)C)C(=O)O; Morpholide = C1CN(*)CCO1; Ac5c = NC1(C(=O)O)CCCC1; Ac3c = NC1(C(=O)O)CC1; Sar = CNCC(=O)O

Columns and labels:
[1] = target: GDP-bound HRAS wild-type protein (Homo sapiens, UniProt P01112); assay: Binding to HRAS by surface plasmon resonance (SPR), Single Cycle Kinetics; conditions: for HRAS/KRAS (ratio of KD value with respect to HRAS to KD value with respect to KRAS): GDP-bound HRAS wild-type vs GDP-bound KRAS wild-type
[2] = target: GDP-bound NRAS wild-type protein (Homo sapiens, UniProt P01111); assay: Binding to NRAS by surface plasmon resonance (SPR), Single Cycle Kinetics; conditions: for NRAS/KRAS (ratio of KD value with respect to NRAS to KD value with respect to KRAS): GDP-bound NRAS wild-type vs GDP-bound KRAS wild-type
Sequence of GDP-bound NRAS wild-type protein (P01111 whole entry): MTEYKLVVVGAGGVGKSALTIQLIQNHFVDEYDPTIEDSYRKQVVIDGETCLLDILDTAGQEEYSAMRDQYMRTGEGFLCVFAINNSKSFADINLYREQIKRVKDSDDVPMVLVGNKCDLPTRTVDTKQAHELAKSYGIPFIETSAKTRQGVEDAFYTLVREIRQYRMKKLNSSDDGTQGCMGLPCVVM

Sequence of GDP-bound HRAS wild-type protein (P01112 whole entry): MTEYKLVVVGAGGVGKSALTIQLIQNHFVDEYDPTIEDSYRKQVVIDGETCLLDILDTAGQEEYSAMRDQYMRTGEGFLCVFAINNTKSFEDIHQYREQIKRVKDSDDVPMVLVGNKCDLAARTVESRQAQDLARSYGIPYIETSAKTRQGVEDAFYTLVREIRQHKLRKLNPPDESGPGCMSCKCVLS

CCO[C@@H]1C[C@H]2C(=O)NC3(CC(C)(C)C3)C(=O)N(C)[C@@H](C(CC)CC)C(=O)N(C)[C@H](C(=O)N(C)C)CC(=O)N(C)[C@@H](CC3CC3)C(=O)N[C@@H]([C@@H](C)CC)C(=O)N(C)CC(=O)N(C)[C@H]3C/C=C\CCN(C3=O)[C@@H](Cc3ccc(C)cc3)C(=O)N(C)CC(=O)N[C@@H](CCc3ccc(C(F)(F)F)c(OC)c3)C(=O)N2C1 [PP2166]
HRAS/KRAS (ratio of KD value with respect to HRAS to KD value with respect to KRAS) ([1]; SPR): A (a compound having 10 or more and less than 20 is denoted as A) | NRAS/KRAS (ratio of KD value with respect to NRAS to KD value with respect to KRAS) ([2]; SPR): A (a compound having 10 or more and less than 20 is denoted as A)

CCCN1C(=O)CN(C)C(=O)CN(C)C(=O)[C@H]([C@@H](C)CC)NC(=O)[C@H](CC(C)C)N(C)C(=O)C[C@@H](C(=O)N2CCOCC2)N(C)C(=O)[C@H](C2CCCC2)N(C)C(=O)C2(CC2)NC(=O)[C@@H]2CCCN2C(=O)[C@H](CCc2ccc(C(F)(F)F)c(Cl)c2)NC(=O)CN(C)C(=O)[C@@H]1Cc1ccc(C(F)(F)F)cc1 [PP0229] ([NMeL]I[Sar][Sar][NPrPhe(4-CF3)][Sar][hPhe(3-Cl-4-CF3)]P[Ac3c][NMeGly(cPent)][NMeD]-Morpholide; lactam N-11)
HRAS/KRAS (ratio of KD for GDP-bound HRAS wild-type to KD for KRAS) ([1]; KD ratio HRAS/KRAS, SPR): B (a compound having 3 or more and less than 10 is denoted as B) | NRAS/KRAS (ratio of KD for GDP-bound NRAS wild-type to KD for KRAS) ([2]; KD ratio NRAS/KRAS, SPR): B (a compound having 3 or more and less than 10 is denoted as B)

CCO[C@@H]1C[C@H]2C(=O)NC3(CCC3)C(=O)N(C)[C@@H](C3CCCC3)C(=O)N(C)[C@H](C(=O)N(C)C)CC(=O)N(C)C[C@@H](C)C(=O)N[C@@H]([C@@H](C)CC)C(=O)N(C)CC(=O)N(C)[C@H]3CCCCN(C3=O)[C@@H](Cc3ccc(C(F)(F)F)cc3)C(=O)N(C)CC(=O)N[C@@H](CCc3cc(F)c(C(F)(F)F)c(F)c3)C(=O)N2C1 [PP0706]
HRAS/KRAS (ratio of KD value with respect to GDP-bound HRAS wild-type protein to KD value with respect to KRAS) ([1]; KD ratio HRAS/KRAS, SPR): B (a compound having 3 or more and less than 10 is denoted as B) | NRAS/KRAS (ratio of KD value with respect to GDP-bound NRAS wild-type protein to KD value with respect to KRAS) ([2]; KD ratio NRAS/KRAS, SPR): B (a compound having 3 or more and less than 10 is denoted as B)

CCOC[C@H]1C(=O)N[C@@H]([C@@H](C)CC)C(=O)N(C)CC(=O)N(C)[C@H]2C/C=C\CCN(C2=O)[C@@H](Cc2ccc(C)cc2)C(=O)N(C)CC(=O)N[C@@H](CCc2ccc(C(F)(F)F)c(OC)c2)C(=O)N2C[C@@H](C)C[C@H]2C(=O)NC2(CC(C)(C)C2)C(=O)N(C)[C@@H](C2CCCC2)C(=O)N(C)[C@H](C(=O)N(CC)CC)CC(=O)N1C [PP2405]
HRAS/KRAS (ratio of KD value with respect to HRAS to KD value with respect to KRAS) ([1]; SPR): A (a compound having 10 or more and less than 20 is denoted as A) | NRAS/KRAS (ratio of KD value with respect to NRAS to KD value with respect to KRAS) ([2]; SPR): A (a compound having 10 or more and less than 20 is denoted as A)

CCO[C@@H]1C[C@H]2C(=O)NC3(CCC3)C(=O)N(C)[C@@H](C3CCCC3)C(=O)N[C@H](C(=O)N(C)C)CC(=O)N(C)[C@@H](CC)C(=O)N[C@@H]([C@@H](C)CC)C(=O)N(C)CC(=O)N(C)[C@H]3C/C=C\CCN(C3=O)[C@@H](Cc3ccc(C(F)(F)F)cc3)C(=O)N(C)CC(=O)N[C@@H](CCc3cc(F)c(C(F)(F)F)c(F)c3)C(=O)N2C1 [PP1094]
HRAS/KRAS (ratio of KD value with respect to HRAS to KD value with respect to KRAS) ([1]; KD ratio, SPR): B (a compound having 3 or more and less than 10 is denoted as B) | NRAS/KRAS (ratio of KD value with respect to NRAS to KD value with respect to KRAS) ([2]; KD ratio, SPR): A (a compound having 10 or more and less than 20 is denoted as A)

CCC[C@H]1C(=O)N[C@@H]([C@@H](C)CC)C(=O)N2C[C@@H](OC)C[C@H]2C(=O)N(C)[C@H]2C/C=C\CCN(C2=O)[C@@H](Cc2ccc(C)cc2)C(=O)N(C)CC(=O)N[C@@H](CCc2ccc(C(F)(F)F)c(OC)c2)C(=O)N2C[C@H](OCC)C[C@H]2C(=O)NC2(CC(C)(C)C2)C(=O)N(C)[C@@H](C2CCCC2)C(=O)N(C)[C@H](C(=O)N(C)C)CC(=O)N1C [PP2557]
HRAS/KRAS (ratio of KD value with respect to GDP-bound HRAS wild-type protein to KD value with respect to KRAS) ([1]; KD ratio HRAS/KRAS, class symbols): B (a compound having 3 or more and less than 10 is denoted as B) | NRAS/KRAS (ratio of KD value with respect to GDP-bound NRAS wild-type protein to KD value with respect to KRAS) ([2]; KD ratio NRAS/KRAS, class symbols): A (a compound having 10 or more and less than 20 is denoted as A)

CCCN1C(=O)CN(C)C(=O)CN(C)C(=O)[C@H]([C@@H](C)CC)NC(=O)[C@H](CC(C)C)N(C)C(=O)C[C@@H](C(=O)N2CCOCC2)N(C)C(=O)[C@H](CC(F)(F)F)N(C)C(=O)C2(CCCC2)NC(=O)[C@@H]2CCCN2C(=O)[C@H](CCc2cc(F)c(C(F)(F)F)c(F)c2)NC(=O)CN(C)C(=O)[C@@H]1Cc1ccc(C(F)(F)F)cc1 [PP0767] ([NMeL]I[Sar][Sar][NPrPhe(4-CF3)][Sar][hPhe(3,5-F2-4-CF3)]P[Ac5c][NMeAbu(4,4,4-F3)][NMeD]-Morpholide; lactam N-11)
HRAS/KRAS (ratio of KD value with respect to GDP-bound HRAS wild-type protein to KD value with respect to KRAS) ([1]; KD ratio HRAS/KRAS, SPR): C (A compound having a KD ratio of 0.1 or more and less than 3 is denoted as C) | NRAS/KRAS (ratio of KD value with respect to GDP-bound NRAS wild-type protein to KD value with respect to KRAS) ([2]; KD ratio NRAS/KRAS, SPR): B (a compound having 3 or more and less than 10 is denoted as B)
